# Source: patent US11903917B2, “MEK-inhibitor for the treatment of viral and bacterial infections” (priority 2017, dated 2024)
# Tests used:
# [1] = system: A549 cells; assay: A549 cell viability (trypan blue) and LDH release; type: cell-based, human; details: 1-100 μM, 24 and 48 hours
# Description: To rule out that the reduction in viral and intracellular bacterial replication was a result of a cytotoxic effect of PD-0184264 on A549 cells, cell viability in presence of increasing concentrations was monitored for 24 and 48 hours. Additionally, a LDH-Assay was performed to determine membrane rupture due to inhibitor treatment. […] A549 cells were treated for 24 (as shown in FIGS. 15A and C) or 48 (as shown in FIGS. 15B and D) hours with increasing concentrations of PD-0184264 (1, 5, 10, 20, 50 or 100 μM). After the incubation times, supernatants were taken for measurement of LDH release (shown in FIGS. 15C, D) using the CytoSelect LDH Cytotoxicity Assay Kit according to the manufacturer's instructions. Additionally, viable cells were counted by staining with trypan blue. Cell viability was normalized to DMSO-treated cells and is shown as % viability. […] Statistical significance was calculated by one-way ANOVA followed by Dunnett's multiple comparisons test (*p<0.05; **p<0.01; […]***p<0.001).
# [2] = system: MRSA strain USA300; assay: Over-night treated culture, bacterial titers (CFU/ml) and OD600; type: cell-based, Staphylococcus aureus
# [3] = system: S. aureus 6850; type: cell-based, Staphylococcus aureus
# [4] = system: A549 cells infected with A/Puerto Rico/8/34 (H1N1) and/or S. aureus 6850; type: cell-based
# [5] = system: MRSA strain S. aureus (USA300); assay: Cell-free culture bacterial growth (OD600)
# Description: Bacterial growth was monitored for 360 minutes.
# MRSA bacteria were incubated with different concentrations of the MEK inhibitor ranging from 0-100 μM and bacterial growth was monitored six hours after cultivation.
# [6] = system: H1N1 pdm09; assay: Example 11: lung virus titration assay in infected mice; type: in vivo, C57BL/6 mice; details: for virus titer in the lung, control set to 100%: 24 h after infection
# Description: (A) After H1N1 pdm09 infection female C57BL/6 mice were treated with either 2.8, 8.4 or 25 mg/kg PD-0184264 (left side) or with 25, 75 or 150 mg/Kg […] ([…]) the oral route. 24 hrs after infection the animals were killed and lung was taken to prepare a 10% suspension. Virus titer was determined using the standard method. Virus titer of mice treated with the two MEK-inhibitors were compared to virus titer of mice treated with solvent (Control) alone. Virus tier in the lungs of control mice was set to 100% (black bar). Graphpad Prism 7 software was used to illustrate both figures.
# For oral application of 25 mg/kg, 2.5 mg of PD-0184264 were dissolved in 50 μl DMSO (Sigma-Aldrich, Germany) and further diluted with 0.15 ml Cremophor EL (Merck-Millipore, Germany) and 0.8 ml PBS (Gibco, Germany). For application of 8.4 mg/kg and 2.8 mg/kg, 0.84 mg or 0.28 mg PD-0184264 were dissolved with 50 μl DMSO (Sigma-Aldrich, Germany) and further diluted with 0.15 ml Cremophor EL/0.8 ml PBS.
# Eight week old female C57Bl/6 mice (Charles River Laboratories, Germany) with a body weight of 21.0-24.0 g at administration were used for antiviral studies. The animals were normally fed. Drinking water was available ad libitum.
# Drugs were administrated using a single dosing on test day 1 by oral gavage. The application speed was 15 s per dose with an administration volume of 200 μl.
# Mice were sacrificed 24 h post infection and lungs were weighed, transferred into a Lysing Matrix D tube (MP Bio) and BSS was applied in an amount of the 10-fold volume of the lung. Organs were shredded using the FastPrep FP 120 (Savant). To remove the cell debris the homogenates were centrifuged for 15 min at 2000 rpm and the supernatant collected. The determination of virus titer in homogenates was performed using the AVICEL® plaque assay as described previously (Haasbach et al. 2011, Mastrosovich et al. 2006).
# [7] = Pharmacokinetics, drug in plasma after i.v. or per os application; type: in vivo, NMRI mice
# Description: Blood was collected at 15 min, 30 min, 1 h, 2 h, 4 h, 6 h, 8 h and 24 h (test day 2) after administration and plasma was analysed for the presence of the drug. […] Blood was collected at 15 min, 30 min, 1 h, 2 h, 4 h, 6 h, 8 h and 24 h (test day 2) after administration and plasma was analysed for the presence of the drug. Each data point represents the mean value of three plasma samples. Graphpad Prism 7 software was used to illustrate both figures.
# 34.88 mg PD-0184264 were dissolved in 0.075 ml DMSO and further diluted with 0.225 ml Cremophor EL/2.7 ml PBS. […] 81.0 mg PD-0184264 were dissolved in 0.2 ml DMSO/0.6 ml Cremophor EL/3.2 ml PBS.
# Eight week old male NMRI mice (Charles River Laboratories, Germany) with a body weight of 23.9-36.5 g at administration were used for pharmacokinetic studies. The animals were normally fed. Drinking water was available ad libitum.
# Experiments were performed at LPT GmbH (Hamburg, Germany). Sufficient whole blood—taken under isoflurane anaesthesia—was collected to obtain at least 2×100 μl Li-Heparin plasma of 3 animals per group and time-point at the following times: 0 (predose), 15 min, 30 min, 1 h, 2 h, 4 h, 6 h, 8 h and 24 h (test day 2) after administration. The whole blood samples were instantly cooled using an Iso-Therm-Rack system (Eppendorf AG, Germany) until centrifugation within 0.5 hours after withdrawal. Immediately after centrifugation, the samples were stored at −20° C. until further analysis. Plasma analysis was performed using standard procedures at Prolytic GmbH (Frankfurt, Germany).
# Drugs were either administrated using a single dosing on test day 1 by oral gavage or by Intravenous bolus injection into a tail vein. The Injection speed was 15 s/dose with an administration volume of 200 μl.
compound,measurement,setting,value
"O=C(O)c1ccc(F)c(F)c1Nc1ccc(I)cc1Cl [PD-0184264, 2-(2-chloro-4-iodophenylamino)-N-3,4-difluoro benzoic acid]","cell toxicity (cell viability, LDH release)",[1],does not induce cell toxicity
same,reduction of bacterial growth (FIG. 4),"[2]; 10 μM, over night, MRSA USA300",significant reduction of growth
same,reduction of bacterial titers,"[2]; 20 μM, over night, MRSA USA300, CFU/ml",1.5-2 orders of a magnitude
same,effect on bacterial titers (CFU/ml),"[2]; over night treatment, MRSA USA300, vs solvent",very strong reduction in bacterial load
same,intracellular bacterial titers,[3],reduced intracellular bacterial titers
same,concentration already showing reduction of the cytopathic effect,"[4]; bacterial and viral co-infection, FIG. 5",15 µM
same,"cytopathic effect (CPE), cell monolayer disruption","[4]; increasing concentrations, 24 h, IAV (H1N1) MOI 0.001 and S. aureus 6850 MOI 0.1",reversed in a concentration dependent manner
same,bacterial growth (OD600),"[5]; 50 μM, monitored for 360 minutes, vs solvent DMSO",almost complete absent
same,inhibition of bacterial growth (FIG. 3),"[5]; starting at 50 μM, 6 hrs",almost complete inhibition of growth
same,"virus titer in the lung, control set to 100%",[6]; 2.8 mg/kg oral,approx. 70%
same,"virus titer in the lung, control set to 100%",[6]; 8.4 mg/kg oral,approx. 20%
same,"virus titer in the lung, control set to 100%",[6]; 25 mg/kg oral,approx. 10%
same,reduction of the virus titer in the lung,"[6]; 25 mg/kg, FIG. 18",at least 90%
same,fold lower concentration needed to achieve a similar effect as 150 mg/kg CI-1040,[6]; oral,6 fold
same,drug in plasma at eight hours,[7]; 150 mg/kg per os application,still a high concentration
same,AUC,"[7]; mouse, plasma, iv, male NMRI mice, route of this value not stated (75 mg/kg i.v. / 150 mg/kg per os)",1950 µg·h/mL
